Reference: US20200254065A1, “LONG-ACTING GLP-2 ANALOGS” (OPKO Biologics Ltd., priority 2019, published 2020)
Values belong to the compound of their own block, whether it stands above or below them. Square brackets hold non-standard residues; d marks the D form. Peptide text beside a SMILES is read from it. Nle = CCCC[C@H](N)C(=O)O

How the values were obtained:
[1] = 2-compartmental pharmacokinetic modelling (MONOLIX 2018R2); assay type: in vivo, rat; settings: rat, in vivo
Description: An in-depth PK modeling was performed to address the unexpected differences in half life, distribution, and pharmacological effect between V4, Cys-FMS-V4, and Apraglutide in the rat model. The analysis was performed with MONOLIX 2018R2 suite using a 2-compartmental pharmacokinetic model. The data used in this analysis was comprised from 3 independent experiments (data is presented as their average). The concentration versus time data of V4 that was formed from the Cys-FMS-V4 conjugate (the hydrolyzed peptide) was described appropriately using the values of the pharmacokinetic parameters of V4 peptide. Thus, the disposition of the hydrolyzed V4 was identical to that of the V4 peptide following the IV and SC administration.
The pharmacokinetics of Apraglutide in our studies was determined after SC administration. […] Based on this assumption, the values of volumes of distribution and clearance (Vpept, Vss, Vbeta, and CL) were calculated for Apraglutide (Table 13). The values of the other parameters of Apraglutide in Table 14 (the rate constants and the half-lives) are not dependent on this assumption.

[2] = Apraglutide, as previously reported, cited from earlier work
[3] = Stability of GLP-2 analogues on incubation at 37° C. (appearance, O.D. reading, RP-HPLC); assay type: physicochemical; settings: following 48 h incubation at 37° C.
Description: The GLP-2 analogues were tested for stability via appearance, O.D. reading (A.280, and A.325) and RP-HPLC (purity, and peak area) following t=0, 1 day, and 48 h incubation at 37° C.

[4] = PK after single SC injection in rats (LC-MS/MS); settings: rat, in vivo, 2 mg/kg
Description: To support the pharmacodynamic effects of V4 and Cys-FMS-V4 as detailed in Example 9, a pharmacokinetic analysis was also conducted. In this study (Study reference 15204), all animals were injected SC on Day 1 with 2 mg/kg peptide content of V4, Cys-FMS-V4 and Apraglutide. Blood samples were collected at 2, 8, 12, 24, 36, 48, 72, 96, 120 hours, and Days 7, 8, 9, 10, 11, 12, 13 and 14 post-dose administration and subsequently taken to LC-MS/MS analysis to determine plasma levels of each compound. For Cys-FMS-V4, a 2-analyte method was applied to determine the plasma concentrations of both the full conjugate and the V4 that was hydrolyzed from it (V4 hydrolyzed). Plasma concentrations (μM), as measured by using the LC-MS/MS method, of V4 peptide, Cys-FMS-V4, hydrolyzed V4, and Apraglutide are presented in FIG. 17.

[5] = biological target: T1, GLP-2 receptor (Homo sapiens, UniProt O95838); assay: GLP-2 receptor Cell Based Assay (CBA); settings: EC50 (nM) Average, average of 3 independent CBA; different GLP-2R Assay Kit lot (Table 8)
T1 sequence (O95838 1-553): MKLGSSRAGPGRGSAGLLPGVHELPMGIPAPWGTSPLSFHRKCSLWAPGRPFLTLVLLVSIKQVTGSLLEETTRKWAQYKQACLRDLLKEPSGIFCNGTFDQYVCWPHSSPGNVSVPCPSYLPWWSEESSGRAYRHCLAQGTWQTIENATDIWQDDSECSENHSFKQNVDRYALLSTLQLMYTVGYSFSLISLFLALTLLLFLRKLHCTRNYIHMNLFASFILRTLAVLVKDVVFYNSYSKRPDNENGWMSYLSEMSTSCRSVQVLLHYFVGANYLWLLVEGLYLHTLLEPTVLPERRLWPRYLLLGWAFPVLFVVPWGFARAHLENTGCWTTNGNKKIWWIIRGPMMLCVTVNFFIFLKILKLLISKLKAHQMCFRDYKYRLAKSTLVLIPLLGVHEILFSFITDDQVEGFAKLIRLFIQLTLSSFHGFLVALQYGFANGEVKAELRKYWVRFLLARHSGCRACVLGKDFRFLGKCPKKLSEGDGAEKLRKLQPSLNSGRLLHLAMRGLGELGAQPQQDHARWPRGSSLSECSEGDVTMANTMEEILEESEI

[6] = circulating native GLP-2; in humans; cited from earlier work

k12 [1]: 0.0065 h⁻¹
k21 [1]: 0.0068 h⁻¹
ka—pept [1]: 0.1661 h⁻¹
kpepte [1]: 0.0855 h⁻¹
CL ([1]; sc): 0.222 mL/min/kg
Vd ([1]; sc): 2.12 L/kg
Vpept ([1]; sc): 0.156 L/kg
Vss ([1]; sc): 0.303 L/kg
half-life ([1]; sc, t1/2 absorption): 4.17 h
half-life ([1]; t1/2 alpha): 7.5 h
half-life ([1]; t1/2 beta): 110 h
Solubility via appearance [3]: V1: opaque
Stability via RP-HPLC main peak ([3]; change of main peak): V1: −20%
AUC(0-inf) [4]: 29.4 µM·h
AUC(0-t) [4]: 29.2 µM·h
CL/F [4]: 0.3 mL/min/kg
Cmax [4]: 1950 nM
Time post injection up to which detectable in blood [4]: ≤ 120 h
Tmax [4]: 8 h
Vd/F [4]: 0.38 L/kg
half-life [4]: 14.5 h
EC50 [5]: 1.7 nM
Compound: CCCC[C@H](NC(=O)[C@H](CCC(=O)O)NC(=O)[C@H](CC(=O)O)NC(=O)[C@H](CO)NC(=O)[C@H](Cc1ccccc1)NC(=O)[C@H](CO)NC(=O)CNC(=O)[C@H](CC(=O)O)NC(=O)CNC(=O)[C@@H](N)Cc1cnc[nH]1)C(=O)N[C@H](Cc1ccccc1)C(=O)N[C@H](C(=O)N[C@H](C(=O)N[C@@H](CC(C)C)C(=O)N[C@@H](CC(=O)O)C(=O)N[C@@H](CC(C)C)C(=O)N[C@@H](CC(C)C)C(=O)N[C@@H](C)C(=O)N[C@@H](C)C(=O)N[C@@H](CCCNC(=N)N)C(=O)N[C@@H](CC(=O)O)C(=O)N[C@@H](Cc1ccccc1)C(=O)N[C@H](C(=O)N[C@@H](CC(N)=O)C(=O)N[C@@H](Cc1c[nH]c2ccccc12)C(=O)N[C@@H](CC(C)C)C(=O)N[C@H](C(=O)N[C@@H](CCC(N)=O)C(=O)N[C@H](C(=O)N[C@@H](CCCCN)C(=O)N[C@H](C(=O)N[C@H](C(=O)N[C@@H](CC(=O)O)C(N)=O)[C@@H](C)O)[C@@H](C)CC)[C@@H](C)O)[C@@H](C)CC)[C@@H](C)CC)[C@@H](C)CC)[C@@H](C)O [Variant 1, reference compound] (H-HGDGSFSDE[Nle][dF]TILDLLAARDFINWLIQTKITD-NH2)
Fpept ([2]; assumed absolute SC bioavailability in rats): 0.74
Absolute bioavailability following SC administration in rats ([2]; assumed): 74%

Compound: NH2-HADGSFSDEMNTILDNLAARDFINWLIQTKITD-COOH [native GLP-2]
Biological (in vivo) half-life [6]: approximately 7 minutes
